# Patent US5968910A, “Compositions containing two or three inhibitors of different HIV reverse transcriptases” (priority 1994, dated 1999)
# Where two headings read alike, the source gives them in different places.
# Assays:
# Type in all cases: cell-based
# [1] = tested on: HIV-1/V(0.1) 101-Ile + 141-Glu; assay: Sensitivity of mutant HIV-1 strain in CEM cell cultures; conditions: Table 5
# Protocol: (§1) CEM cells were suspended at 250,000 cells per ml of culture medium and infected with wild-type HIV-I(IIIB) or mutant HIV-1 strains at 100 50% cell culture infective doses per ml. Then 100 μl of the infected cell suspensions was added to 200-μl microtiter plate wells containing 100 μl of an appropriate dilution of the test compounds. After 4 days incubation at 37° C., the cell cultures were examined for syncytium formation.
# HIV-1/IV(0.1) 103-Thr = assay: as above; conditions: Table 5
# Protocol: as §1
# HIV-1/III(0.1) 103-Asn = assay: as above; conditions: Table 5
# Protocol: as §1
# HIV-1/V(0.5) 103-Asn = assay: as above; conditions: Table 5
# Protocol: as §1
# HIV-1/I(0.1) 103-Asn = assay: as above; conditions: Table 5
# Protocol: as §1
# HIV-1/II(0.1) 100-Ile = assay: as above; conditions: Table 5
# Protocol: as §1
# HIV-1(IIIB) (WT) = assay: microbe, parasite or virus in culture; conditions: HIV-1 (III8), Table 5
# Protocol: as §1
# [2] = Human immunodeficiency virus 1, CCRF-CEM, read-out: EC50
SMILES,"EC50 [1, 2]",EC50 (HIV-1/IV(0.1) 103-Thr; [2]),EC50 (HIV-1/III(0.1) 103-Asn; [2]),EC50 (HIV-1/V(0.5) 103-Asn; [2]),EC50 (HIV-1/I(0.1) 103-Asn; [2]),EC50 (HIV-1/II(0.1) 100-Ile; [2]),"EC50 (HIV-1(IIIB) (WT); Human immunodeficiency virus 1, IIIB, CCRF-CEM, read-out: EC50)",EC50 [1],EC50 (HIV-1/IV(0.1) 103-Thr),EC50 (HIV-1/III(0.1) 103-Asn),EC50 (HIV-1/V(0.5) 103-Asn),EC50 (HIV-1/I(0.1) 103-Asn),EC50 (HIV-1/II(0.1) 100-Ile),EC50 (HIV-1(IIIB) (WT))
"Nc1ccn([C@@H]2CS[C@H](CO)O2)c(=O)n1 [Compound 3TC, (-)-2'-deoxy-3'-thiacytidine]",0.04 µg/mL,0.03 µg/mL,0.03 µg/mL,0.04 µg/mL,0.03 µg/mL,0.05 µg/mL,0.008 µg/mL,–,–,–,–,–,–,–
CCOCn1c(Cc2ccccc2)c(C(C)C)c(=O)[nH]c1=O [MKC-442],–,–,–,–,–,–,–,0.008 µg/mL,0.32 µg/mL,0.01 µg/mL,0.35 µg/mL,0.08 µg/mL,0.40 µg/mL,0.0006 µg/mL
